Data taken from paper PMC10465233, “Lys-urea-Aad, Lys-urea-Cmc and Lys-urea-Cms as potential pharmacophores for the design of PSMA-targeted radioligands to reduce off-target uptake in kidneys and salivary glands” (Theranostics, 2023).

System: LNCaP tumor-bearing mice
Test: Ex vivo biodistribution in LNCaP tumor-bearing mice
Set-up: species or system mouse
Protocol: Imaging, biodistribution and radioligand therapy experiments were performed following previously published procedures using male NOD-scid IL2Rg^null (NSG) or NOD.Cg-Rag1^tm1MomIl2rg^tm1Wjl/SzJ (NRG) mice [10]-[12],[14]-[15]. The experiments were conducted according to the guidelines established by the Canadian Council on Animal Care and approved by Animal Ethics Committee of the University of British Columbia. The mice were briefly sedated by inhalation of 2% isoflurane in oxygen, and implanted subcutaneously with 1×10^7 LNCaP cells behind the left shoulder. The mice were imaged or used in biodistribution studies when the tumor grew to 5-8 mm in diameter over a period of 4-5 weeks.
For biodistribution studies, the mice were injected with the radioligand (2-4 MBq) as described above. For blocking, the mice were co-injected with nonradioactive DCFPyL (0.5 mg). At predetermined time points, the mice were sedated by isoflurane inhalation and euthanized by CO2 inhalation. Blood was withdrawn by cardiac puncture, and organs/tissues of interest were collected, weighed and counted using an automatic gamma counter (Tables S4-S7).

In the case of `COc1ccc(CCCC(=O)NCC(=O)N[C@@H](CCCCNC(=O)CN2CCN(CC(=O)[O-])CCN(CC(=O)[O-])CCN(CC(=O)[O-])CC2)C(=O)NC[C@H]2CC[C@H](C(=O)N[C@@H](Cc3c4ccccc4cc4ccccc34)C(=O)NCCCC[C@H](NC(=O)N[C@@H](CCCC(=O)O)C(=O)O)C(=O)O)CC2)cc1.[177Lu+3]` [[^177Lu]Lu-HTK03170], the Adrenal glands uptake (1 h post-injection) is reported as 3.34 ± 0.45 %ID/g, the Blood uptake (1 h post-injection) is reported as 16.9 ± 1.97 %ID/g and the “Blood:Salivary gland uptake ratio” value (1 h post-injection) is reported as 7.04 ± 0.86. It also gave a Bone uptake (1 h post-injection) of 0.89 ± 0.27 %ID/g, a Brain uptake (1 h post-injection) of 0.23 ± 0.04 %ID/g and a Fat uptake (1 h post-injection) of 1.38 ± 0.45 %ID/g. For the same compound, the Heart uptake (1 h post-injection) was 3.60 ± 0.52 %ID/g, the Intestines uptake (1 h post-injection) was 1.19 ± 0.25 %ID/g and the Kidneys uptake (1 h post-injection) was 13.2 ± 1.87 %ID/g. The Lacrimal glands uptake (1 h post-injection) was 0.27 ± 0.08 %ID/g, the Liver uptake (1 h post-injection) was 2.67 ± 0.37 %ID/g and the Lungs uptake (1 h post-injection) was 8.06 ± 1.48 %ID/g. It also gave a Muscle uptake (1 h post-injection) of 1.15 ± 0.19 %ID/g, a Pancreas uptake (1 h post-injection) of 1.41 ± 0.31 %ID/g and a Salivary glands uptake (1 h post-injection) of 2.43 ± 0.33 %ID/g. For the same compound, the Spleen uptake (1 h post-injection) was 1.64 ± 0.83 %ID/g, the Stomach uptake (1 h post-injection) was 0.59 ± 0.12 %ID/g and the Testes uptake (1 h post-injection) was 2.17 ± 0.32 %ID/g. The Thyroid uptake (1 h post-injection) was 2.90 ± 0.41 %ID/g, the Tumor uptake (1 h post-injection) was 27.2 ± 7.55 %ID/g and the “Tumor:Blood uptake ratio” value (1 h post-injection) was 1.58 ± 0.26. The “Tumor:Kidney uptake ratio” value (1 h post-injection) was 2.07 ± 0.55, the “Tumor:Muscle uptake ratio” value (1 h post-injection) was 23.5 ± 4.66 and the “Tumor:Salivary gland uptake ratio” value (1 h post-injection) was 11.3 ± 2.76. The Adrenal glands uptake (4 h post-injection) was 1.78 ± 0.45 %ID/g, the Blood uptake (4 h post-injection) was 8.34 ± 1.67 %ID/g and the “Blood:Salivary gland uptake ratio” value (4 h post-injection) was 6.48 ± 1.02. For the same compound, the Bone uptake (4 h post-injection) was 0.45 ± 0.13 %ID/g, the Brain uptake (4 h post-injection) was 0.13 ± 0.03 %ID/g and the Fat uptake (4 h post-injection) was 0.60 ± 0.13 %ID/g. The Heart uptake (4 h post-injection) was 1.91 ± 0.40 %ID/g, the Intestines uptake (4 h post-injection) was 0.61 ± 0.17 %ID/g and the Kidneys uptake (4 h post-injection) was 9.23 ± 2.18 %ID/g. For the same compound, the Lacrimal glands uptake (4 h post-injection) was 0.15 ± 0.07 %ID/g, the Liver uptake (4 h post-injection) was 1.89 ± 0.69 %ID/g and the Lungs uptake (4 h post-injection) was 4.35 ± 0.82 %ID/g. For the same compound, the Muscle uptake (4 h post-injection) was 0.58 ± 0.13 %ID/g, the Pancreas uptake (4 h post-injection) was 0.74 ± 0.18 %ID/g and the Salivary glands uptake (4 h post-injection) was 1.31 ± 0.30 %ID/g. The Spleen uptake (4 h post-injection) was 0.96 ± 0.29 %ID/g, the Stomach uptake (4 h post-injection) was 0.42 ± 0.15 %ID/g and the Testes uptake (4 h post-injection) was 1.83 ± 0.58 %ID/g. For the same compound, the Thyroid uptake (4 h post-injection) was 1.62 ± 0.42 %ID/g, the Tumor uptake (4 h post-injection) was 47.6 ± 13.5 %ID/g and the “Tumor:Blood uptake ratio” value (4 h post-injection) was 5.81 ± 1.58. For the same compound, the “Tumor:Kidney uptake ratio” value (4 h post-injection) was 5.38 ± 1.91, the “Tumor:Muscle uptake ratio” value (4 h post-injection) was 83.1 ± 17.0 and the “Tumor:Salivary gland uptake ratio” value (4 h post-injection) was 36.4 ± 5.35. For the same compound, the Adrenal glands uptake (24 h post-injection) was 0.50 ± 0.16 %ID/g, the Blood uptake (24 h post-injection) was 0.59 ± 0.13 %ID/g and the “Blood:Salivary gland uptake ratio” value (24 h post-injection) was 2.11 ± 0.47. The Bone uptake (24 h post-injection) was 0.06 ± 0.04 %ID/g, the Brain uptake (24 h post-injection) was 0.02 ± 0.01 %ID/g and the Fat uptake (24 h post-injection) was 0.12 ± 0.04 %ID/g. It also gave a Heart uptake (24 h post-injection) of 0.26 ± 0.04 %ID/g, an Intestines uptake (24 h post-injection) of 0.18 ± 0.07 %ID/g and a Kidneys uptake (24 h post-injection) of 5.80 ± 1.24 %ID/g. For the same compound, the Lacrimal glands uptake (24 h post-injection) was 0.04 ± 0.03 %ID/g, the Liver uptake (24 h post-injection) was 0.69 ± 0.27 %ID/g and the Lungs uptake (24 h post-injection) was 0.72 ± 0.19 %ID/g. It also gave a Muscle uptake (24 h post-injection) of 0.08 ± 0.02 %ID/g, a Pancreas uptake (24 h post-injection) of 0.12 ± 0.03 %ID/g and a Salivary glands uptake (24 h post-injection) of 0.28 ± 0.04 %ID/g. For the same compound, the Spleen uptake (24 h post-injection) was 0.45 ± 0.10 %ID/g, the Stomach uptake (24 h post-injection) was 0.25 ± 0.13 %ID/g and the Testes uptake (24 h post-injection) was 0.64 ± 0.53 %ID/g. The Thyroid uptake (24 h post-injection) was 0.37 ± 0.06 %ID/g, the Tumor uptake (24 h post-injection) was 57.2 ± 15.3 %ID/g and the “Tumor:Blood uptake ratio” value (24 h post-injection) was 105 ± 57.4. The “Tumor:Kidney uptake ratio” value (24 h post-injection) was 10.5 ± 4.77.
